Here are results for 2 compounds from patent publication US20210323913A1, “SIGMA RECEPTOR BINDERS” (BOARD OF REGENTS, THE UNIVERSITY OF TEXAS SYSTEM, priority 2016, published 2021).

One test deals with sigma 2 receptor (Homo sapiens, UniProt Q5BJF2). The test is described as follows: Sigma 2 receptor radioligand competition binding. Particulars: for Ki ratio Sig1R/Sig2R: Table 1, ratio of Sig1R Ki to Sig2R Ki. On the technique in general: In a radioligand displacement assay an active substance lowers the binding of a labelled ligand.
A further test addresses sigma 1 receptor (Homo sapiens, UniProt Q99720). The test is described as follows: Sigma 1 receptor radioligand competition binding. As to conditions: Table 1, 7-piperazinyl-tetrahydronaphthalene analogs; read-out: Ki (nM) Sig1R.
The target of a further test is H2 (Homo sapiens, UniProt P25021). Description: Radioligand competition binding, H2. Particulars: Table 5; Cheng-Prusoff from best fit IC50.
The target in a further test is 5-HT1B (Homo sapiens, UniProt P28222). Description: Radioligand competition binding, 5-HT1B. As to conditions: Table 5; Cheng-Prusoff from best fit IC50.
A further test has as its target 5-HT2A (Homo sapiens, UniProt P28223). Description: Radioligand competition binding, 5-HT2A. As to conditions: Table 5; Cheng-Prusoff from best fit IC50.
Another test has as its target D3 (Homo sapiens, UniProt P35462). The test is described as follows: Radioligand competition binding, D3. Particulars: Table 5; Cheng-Prusoff from best fit IC50; one value marked (AVE).
The target in a further test is 5-HT7 (Homo sapiens, UniProt P34969). The test is described as follows: Radioligand competition binding, 5-HT7. Particulars: Table 5; Cheng-Prusoff from best fit IC50.
The next test deals with T1, 5-HT1A (Homo sapiens, UniProt P08908).
T1 sequence (P08908 1-422): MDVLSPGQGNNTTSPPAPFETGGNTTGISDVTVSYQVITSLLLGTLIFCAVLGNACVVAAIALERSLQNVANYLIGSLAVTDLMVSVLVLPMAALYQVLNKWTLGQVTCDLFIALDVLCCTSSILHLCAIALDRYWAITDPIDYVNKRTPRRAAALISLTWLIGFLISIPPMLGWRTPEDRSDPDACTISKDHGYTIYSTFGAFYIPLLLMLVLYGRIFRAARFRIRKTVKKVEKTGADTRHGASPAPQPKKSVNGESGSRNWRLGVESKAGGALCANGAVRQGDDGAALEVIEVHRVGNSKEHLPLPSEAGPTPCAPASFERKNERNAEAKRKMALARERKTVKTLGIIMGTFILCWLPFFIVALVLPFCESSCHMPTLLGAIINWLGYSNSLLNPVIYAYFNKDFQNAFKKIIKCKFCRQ
Description: Radioligand competition binding, 5-HT1A. As to conditions: Table 5; Cheng-Prusoff from best fit IC50.

In another test the target is D5 (Homo sapiens, UniProt P21918). Description: Radioligand competition binding, D5. As to conditions: Table 5; Cheng-Prusoff from best fit IC50.
In another test the target is 5-HT1D (Homo sapiens, UniProt P28221). Description: Radioligand competition binding, 5-HT1D. Particulars: Table 5; Cheng-Prusoff from best fit IC50.
The target of another test is 5-HT2B (Homo sapiens, UniProt P41595). Description: Radioligand competition binding, 5-HT2B. Particulars: Table 5; Cheng-Prusoff from best fit IC50.
The target of the next test is T2, D4 (Homo sapiens, UniProt P21917).
T2 sequence (P21917 1-419): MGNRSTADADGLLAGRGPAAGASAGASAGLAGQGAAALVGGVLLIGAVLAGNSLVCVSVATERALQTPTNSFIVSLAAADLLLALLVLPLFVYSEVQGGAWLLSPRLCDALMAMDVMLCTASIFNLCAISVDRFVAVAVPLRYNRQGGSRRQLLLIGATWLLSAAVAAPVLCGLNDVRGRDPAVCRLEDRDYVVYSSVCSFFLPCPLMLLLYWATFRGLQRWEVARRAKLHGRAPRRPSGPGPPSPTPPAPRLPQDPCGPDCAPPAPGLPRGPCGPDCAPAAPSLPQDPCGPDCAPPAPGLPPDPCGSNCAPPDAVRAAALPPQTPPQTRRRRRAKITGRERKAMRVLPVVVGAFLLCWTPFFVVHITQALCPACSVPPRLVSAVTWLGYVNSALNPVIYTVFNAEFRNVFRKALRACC
Description: Radioligand competition binding, D4. Particulars: Table 5; Cheng-Prusoff from best fit IC50.

A further test concerns the target D1 (Homo sapiens, UniProt P21728). The test is described as follows: Radioligand competition binding, D1. As to conditions: Table 5; Cheng-Prusoff from best fit IC50; some values marked (AVE).
The target of a further test is D2 (Homo sapiens, UniProt P14416). The test is described as follows: Radioligand competition binding, D2. Particulars: Table 5; Cheng-Prusoff from best fit IC50.
The target of the next test is T3, Alpha2A (Homo sapiens, UniProt P08913).
T3 sequence (P08913 1-465): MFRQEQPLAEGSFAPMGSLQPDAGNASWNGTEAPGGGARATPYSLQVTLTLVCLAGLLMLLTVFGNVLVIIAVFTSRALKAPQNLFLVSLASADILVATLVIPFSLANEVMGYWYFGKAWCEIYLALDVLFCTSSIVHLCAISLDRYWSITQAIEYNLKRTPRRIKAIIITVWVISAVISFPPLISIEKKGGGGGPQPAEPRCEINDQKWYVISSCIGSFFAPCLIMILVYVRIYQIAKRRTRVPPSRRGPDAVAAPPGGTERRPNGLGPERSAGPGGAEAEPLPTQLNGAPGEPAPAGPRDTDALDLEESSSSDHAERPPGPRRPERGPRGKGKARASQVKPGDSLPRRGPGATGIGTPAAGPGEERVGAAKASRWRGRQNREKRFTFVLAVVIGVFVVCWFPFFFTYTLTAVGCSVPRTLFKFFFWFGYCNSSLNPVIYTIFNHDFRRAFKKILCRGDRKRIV
The test is described as follows: Radioligand competition binding, Alpha2A. As to conditions: Table 5; Cheng-Prusoff from best fit IC50.

Another test concerns the target DAT (Homo sapiens, UniProt Q01959). The test is described as follows: Radioligand competition binding, DAT. As to conditions: Table 5; Cheng-Prusoff from best fit IC50.
The next test has as its target 5-HT6 (Homo sapiens, UniProt P50406). Description: Radioligand competition binding, 5-HT6. Particulars: Table 5; Cheng-Prusoff from best fit IC50.
A further test has as its target PBR (UniProt P16257). Description: Radioligand competition binding, PBR. Particulars: Table 5; Cheng-Prusoff from best fit IC50; one value marked (AVE).
The next test has as its target Alpha1A (Homo sapiens, UniProt P35348). The test is described as follows: Radioligand competition binding, Alpha1A. Particulars: Table 5; Cheng-Prusoff from best fit IC50.
For a further test, the target named is 5-ht5a (Homo sapiens, UniProt P47898). The test is described as follows: Radioligand competition binding, 5-ht5a. Particulars: Table 5; Cheng-Prusoff from best fit IC50.
Where [1] appears, read: Table 1, 7-piperazinyl-tetrahydronaphthalene analogs, read-out: Ki (nM) Sig2R.

Read-outs that look alike come from different tables or passages of the source.

Chain of sigma 2 receptor (Q5BJF2 whole entry, species assumed): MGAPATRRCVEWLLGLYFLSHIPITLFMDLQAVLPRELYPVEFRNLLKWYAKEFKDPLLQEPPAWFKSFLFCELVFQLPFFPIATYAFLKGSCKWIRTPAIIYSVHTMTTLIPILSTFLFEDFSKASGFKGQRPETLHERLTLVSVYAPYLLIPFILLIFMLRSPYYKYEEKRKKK
Chain of 5-HT1D (P28221 whole entry, species assumed): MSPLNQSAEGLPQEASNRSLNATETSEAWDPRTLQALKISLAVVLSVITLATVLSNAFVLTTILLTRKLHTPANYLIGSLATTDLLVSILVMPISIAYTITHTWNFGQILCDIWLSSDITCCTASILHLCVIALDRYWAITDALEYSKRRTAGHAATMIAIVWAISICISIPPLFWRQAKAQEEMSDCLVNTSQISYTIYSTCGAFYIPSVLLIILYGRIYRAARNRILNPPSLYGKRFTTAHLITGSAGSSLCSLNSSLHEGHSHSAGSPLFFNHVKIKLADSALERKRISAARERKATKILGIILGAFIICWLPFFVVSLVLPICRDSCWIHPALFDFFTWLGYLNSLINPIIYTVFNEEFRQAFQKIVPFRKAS
Chain of 5-HT6 (P50406 whole entry, species assumed): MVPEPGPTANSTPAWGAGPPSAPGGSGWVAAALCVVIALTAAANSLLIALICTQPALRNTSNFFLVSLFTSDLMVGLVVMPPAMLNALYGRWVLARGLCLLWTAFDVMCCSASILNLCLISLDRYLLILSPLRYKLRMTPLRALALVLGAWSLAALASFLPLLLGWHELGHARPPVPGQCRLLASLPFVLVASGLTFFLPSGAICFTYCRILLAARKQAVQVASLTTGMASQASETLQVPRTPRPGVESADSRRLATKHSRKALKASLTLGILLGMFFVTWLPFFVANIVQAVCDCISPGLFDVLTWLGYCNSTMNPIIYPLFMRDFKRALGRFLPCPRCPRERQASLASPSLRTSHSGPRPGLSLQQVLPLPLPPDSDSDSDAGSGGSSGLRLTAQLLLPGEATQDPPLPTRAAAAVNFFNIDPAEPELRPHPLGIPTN
Chain of H2 (P25021 whole entry): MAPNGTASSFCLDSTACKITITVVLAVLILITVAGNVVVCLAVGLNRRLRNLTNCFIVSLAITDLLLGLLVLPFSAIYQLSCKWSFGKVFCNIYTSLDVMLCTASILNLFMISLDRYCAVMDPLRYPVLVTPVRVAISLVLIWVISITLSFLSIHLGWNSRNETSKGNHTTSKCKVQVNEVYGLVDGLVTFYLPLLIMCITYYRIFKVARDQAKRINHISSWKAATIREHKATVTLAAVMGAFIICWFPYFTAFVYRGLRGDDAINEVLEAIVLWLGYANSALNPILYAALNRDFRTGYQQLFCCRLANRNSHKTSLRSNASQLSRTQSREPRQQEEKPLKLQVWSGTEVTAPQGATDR
Chain of D3 (P35462 whole entry): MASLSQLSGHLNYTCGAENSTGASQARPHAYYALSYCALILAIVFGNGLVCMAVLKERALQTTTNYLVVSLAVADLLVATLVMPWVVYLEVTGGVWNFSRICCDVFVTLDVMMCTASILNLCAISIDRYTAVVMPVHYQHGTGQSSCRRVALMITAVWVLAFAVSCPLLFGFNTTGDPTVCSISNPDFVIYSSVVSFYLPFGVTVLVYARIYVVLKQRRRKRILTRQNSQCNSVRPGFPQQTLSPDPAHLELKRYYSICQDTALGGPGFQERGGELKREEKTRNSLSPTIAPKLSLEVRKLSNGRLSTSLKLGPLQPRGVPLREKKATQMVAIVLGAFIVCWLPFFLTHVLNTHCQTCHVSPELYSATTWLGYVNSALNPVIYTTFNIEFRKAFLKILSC
Chain of 5-HT2B (P41595 whole entry, species assumed): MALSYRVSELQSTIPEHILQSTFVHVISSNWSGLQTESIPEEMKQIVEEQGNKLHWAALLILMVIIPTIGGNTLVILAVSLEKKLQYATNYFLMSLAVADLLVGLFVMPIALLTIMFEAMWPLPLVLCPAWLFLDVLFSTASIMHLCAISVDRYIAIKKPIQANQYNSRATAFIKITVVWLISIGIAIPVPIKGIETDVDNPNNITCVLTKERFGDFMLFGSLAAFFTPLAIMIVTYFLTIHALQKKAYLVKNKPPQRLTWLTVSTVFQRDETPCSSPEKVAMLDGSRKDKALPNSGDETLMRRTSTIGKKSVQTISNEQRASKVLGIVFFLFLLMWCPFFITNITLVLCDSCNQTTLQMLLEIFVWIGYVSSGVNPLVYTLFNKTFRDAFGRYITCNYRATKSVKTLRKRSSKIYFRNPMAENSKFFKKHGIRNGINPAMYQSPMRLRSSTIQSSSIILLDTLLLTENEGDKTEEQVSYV
Chain of 5-HT7 (P34969 whole entry, species assumed): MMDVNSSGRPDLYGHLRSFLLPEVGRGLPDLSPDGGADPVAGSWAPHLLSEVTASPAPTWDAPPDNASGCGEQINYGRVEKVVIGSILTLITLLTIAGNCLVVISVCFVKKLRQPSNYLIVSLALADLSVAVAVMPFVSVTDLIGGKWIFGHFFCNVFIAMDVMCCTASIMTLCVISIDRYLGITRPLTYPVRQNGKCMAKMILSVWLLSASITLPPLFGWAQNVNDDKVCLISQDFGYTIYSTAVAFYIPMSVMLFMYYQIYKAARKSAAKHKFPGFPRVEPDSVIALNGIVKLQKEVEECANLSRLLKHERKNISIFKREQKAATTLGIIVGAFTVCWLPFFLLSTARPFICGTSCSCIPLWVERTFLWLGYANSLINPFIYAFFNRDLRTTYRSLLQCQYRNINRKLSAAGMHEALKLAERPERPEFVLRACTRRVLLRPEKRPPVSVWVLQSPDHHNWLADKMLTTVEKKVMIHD
Chain of 5-HT1B (P28222 whole entry, species assumed): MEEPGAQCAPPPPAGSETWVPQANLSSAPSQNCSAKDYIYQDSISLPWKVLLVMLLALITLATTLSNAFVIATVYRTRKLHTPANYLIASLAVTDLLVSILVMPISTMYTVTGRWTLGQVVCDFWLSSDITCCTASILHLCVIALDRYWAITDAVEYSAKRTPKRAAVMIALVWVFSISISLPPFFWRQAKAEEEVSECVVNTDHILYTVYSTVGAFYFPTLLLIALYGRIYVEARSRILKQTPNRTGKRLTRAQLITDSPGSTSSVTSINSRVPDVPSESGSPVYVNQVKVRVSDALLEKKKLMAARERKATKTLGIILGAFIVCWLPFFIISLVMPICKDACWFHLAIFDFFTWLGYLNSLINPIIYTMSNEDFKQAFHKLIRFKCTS
Chain of sigma 1 receptor (Q99720 whole entry, species assumed): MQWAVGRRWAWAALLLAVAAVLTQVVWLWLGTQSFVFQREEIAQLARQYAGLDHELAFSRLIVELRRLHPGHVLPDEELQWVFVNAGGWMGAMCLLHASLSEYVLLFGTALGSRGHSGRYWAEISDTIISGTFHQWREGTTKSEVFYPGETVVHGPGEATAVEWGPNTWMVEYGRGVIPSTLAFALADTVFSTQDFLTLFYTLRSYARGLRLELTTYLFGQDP
Chain of 5-HT2A (P28223 whole entry, species assumed): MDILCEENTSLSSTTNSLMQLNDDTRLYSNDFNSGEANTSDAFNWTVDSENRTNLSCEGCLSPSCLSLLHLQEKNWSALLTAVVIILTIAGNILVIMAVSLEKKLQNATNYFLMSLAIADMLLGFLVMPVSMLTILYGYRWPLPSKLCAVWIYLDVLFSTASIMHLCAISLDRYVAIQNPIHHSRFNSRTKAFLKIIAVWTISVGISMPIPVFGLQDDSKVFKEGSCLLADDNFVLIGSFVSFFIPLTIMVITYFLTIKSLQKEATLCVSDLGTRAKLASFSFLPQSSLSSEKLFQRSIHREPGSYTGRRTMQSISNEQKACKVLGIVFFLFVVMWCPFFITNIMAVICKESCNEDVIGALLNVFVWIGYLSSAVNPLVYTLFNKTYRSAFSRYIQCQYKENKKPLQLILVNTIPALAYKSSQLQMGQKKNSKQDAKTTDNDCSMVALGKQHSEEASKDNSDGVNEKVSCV
Chain of DAT (Q01959 whole entry, species assumed): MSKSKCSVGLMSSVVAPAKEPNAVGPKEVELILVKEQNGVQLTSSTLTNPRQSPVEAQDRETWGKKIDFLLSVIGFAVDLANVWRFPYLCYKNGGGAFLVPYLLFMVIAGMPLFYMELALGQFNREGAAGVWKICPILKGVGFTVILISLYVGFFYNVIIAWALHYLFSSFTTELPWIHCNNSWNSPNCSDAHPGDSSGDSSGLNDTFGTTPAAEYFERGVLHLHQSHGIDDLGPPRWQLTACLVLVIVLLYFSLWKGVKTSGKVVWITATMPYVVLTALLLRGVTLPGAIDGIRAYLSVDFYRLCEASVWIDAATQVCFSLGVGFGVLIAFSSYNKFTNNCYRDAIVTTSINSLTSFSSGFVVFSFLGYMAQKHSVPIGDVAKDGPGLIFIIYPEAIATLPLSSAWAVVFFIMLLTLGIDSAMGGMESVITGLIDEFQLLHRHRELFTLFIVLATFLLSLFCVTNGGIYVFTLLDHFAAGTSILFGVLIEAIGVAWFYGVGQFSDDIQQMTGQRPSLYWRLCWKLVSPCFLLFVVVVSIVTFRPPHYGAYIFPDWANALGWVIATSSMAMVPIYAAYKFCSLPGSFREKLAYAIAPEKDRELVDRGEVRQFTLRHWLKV
Chain of D2 (P14416 whole entry): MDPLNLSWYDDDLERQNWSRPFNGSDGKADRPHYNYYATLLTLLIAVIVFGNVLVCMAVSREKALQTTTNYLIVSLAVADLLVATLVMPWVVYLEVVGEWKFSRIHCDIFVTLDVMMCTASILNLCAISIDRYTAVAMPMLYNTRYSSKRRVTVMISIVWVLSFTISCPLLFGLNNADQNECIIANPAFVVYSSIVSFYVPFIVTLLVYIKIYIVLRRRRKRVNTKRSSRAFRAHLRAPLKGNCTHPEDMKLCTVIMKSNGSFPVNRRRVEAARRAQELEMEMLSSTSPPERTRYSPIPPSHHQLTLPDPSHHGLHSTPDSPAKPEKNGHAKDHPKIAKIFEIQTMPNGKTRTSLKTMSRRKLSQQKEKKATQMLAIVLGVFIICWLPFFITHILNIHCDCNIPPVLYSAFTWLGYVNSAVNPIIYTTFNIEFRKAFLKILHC

As to `CCCN1CCN(c2ccc3c(c2)C(N(CCC)C(=O)OCc2ccccc2)CCC3)CC1` (stereo not shown) [MDW-1-196, Benzyl propyl(7-(4-propylpiperazin-1-yl)-1,2,3,4-tetrahydronaphthalen-1-yl)carbamate], the Ki (in general, a measure of affinity in units of concentration, obtained from inhibition or displacement) is 9 nM at sigma 2 receptor (setting [1]); 9.4 nM at sigma 2 receptor (Table 5, Cheng-Prusoff from best fit IC50, read-out: Ki Sigma 2); 199 nM on sigma 1 receptor; 1040 nM on H2; 1310 nM on 5-HT1B; 1280 nM on 5-HT2A. For the same compound, the inhibitory constant (Ki) at D3 was 177 nM; at 5-HT7, 1050 nM; at 5-HT1A, 3800 nM; at D5, greater than 10000 nM; at 5-HT1D it was 1100 nM; at 5-HT2B, 2140 nM. The inhibition constant Ki on D4 amounted to 2510 nM; on D1 it was 1920 nM; on D2, 931 nM; at Alpha2A, 980 nM; at DAT, 1910 nM; on 5-HT6, 1960 nM. Also, on sigma 2 receptor, the “Ki ratio Sig1R/Sig2R” value is 22.

In the case of `CCCN(C(=O)OCc1ccccc1)C1CCCc2ccc(N3CCN(CCC(=O)OCC)CC3)cc21` (stereo not shown) [MDW-1-191, Ethyl 3-(4-(8-(((benzyloxy)carbonyl)(propyl)amino)-5,6,7,8-tetrahydronaphthalen-2-yl)piperazin-1-yl)propanoate], the Ki on sigma 2 receptor (setting [1]) is 19 nM; on sigma 1 receptor, 2360 nM; at H2 it was 1290 nM; at 5-HT1B, 441 nM; on PBR it was 1670 nM; on 5-HT2A it was 1730 nM. Besides, the inhibition constant (Ki) came to 315 nM at D3; 891 nM on 5-HT7; 569 nM at 5-HT1A; 1140 nM at 5-HT1D; 771 nM on 5-HT2B; 1720 nM on D4. The Ki at D2 was 2410 nM; on Alpha1A it was 1410 nM; at DAT it was greater than 10000 nM; on 5-ht5a it was 1530 nM; on 5-HT6 it was 1560 nM. Also, the “Ki ratio Sig1R/Sig2R” value at sigma 2 receptor was 124.
